Assay results: patent US8563000B2, “Melanocortin receptor ligands modified with hydantoin” (Ipsen Pharma S.A.S., priority 2007, dated 2013)

Columns and labels:
hMC1 [1] = biological target: T1, hMC1 (Homo sapiens, UniProt Q01726); test: Radioligand binding assay, [125I]-NDP-α-MSH, CHO-K1 membranes
T1 construct: expressed in transfected cells; host or cells: CHO-K1
Experimental: (§1) Cellular membranes used for the in vitro receptor binding assays were obtained from transgenic CHO-K1 cells stably expressing hMC-R receptor subtypes 1, 3, 4 or 5. […] The pellets were re-suspended in the same buffer and centrifuged at 50,000 g for 10 minutes at approximately 4° C. The washed pellets containing the cellular membranes were stored at approximately −80° C.
(§2) Filters were washed three times with 50 mM Tris-HCl at pH 7.4 at a temperature of approximately 0-4° C. and then assayed for radioactivity using a Packard Topcount® scintillation counter. Binding data were analyzed by computer-assisted non-linear regression analysis (XL fit; IDBS).

hMC5 [2] = biological target: T2, hMC5 (Homo sapiens, UniProt P33032); test: as above
T2 construct: expressed in transfected cells; host or cells: CHO-K1
T2 sequence (P33032 whole entry): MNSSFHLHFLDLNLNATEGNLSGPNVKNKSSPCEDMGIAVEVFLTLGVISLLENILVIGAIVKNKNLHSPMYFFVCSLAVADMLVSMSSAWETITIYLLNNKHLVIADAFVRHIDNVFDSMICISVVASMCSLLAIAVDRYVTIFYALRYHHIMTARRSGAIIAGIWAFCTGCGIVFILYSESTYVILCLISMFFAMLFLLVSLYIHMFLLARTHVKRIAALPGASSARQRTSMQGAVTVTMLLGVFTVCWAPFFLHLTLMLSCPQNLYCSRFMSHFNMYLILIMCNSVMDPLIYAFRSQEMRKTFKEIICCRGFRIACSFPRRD
Experimental: as §1, §2

hMC4 [3] = biological target: T3, hMC4 (Homo sapiens, UniProt P32245); test: as above
T3 construct: expressed in transfected cells; host or cells: CHO-K1
T3 sequence (P32245 whole entry): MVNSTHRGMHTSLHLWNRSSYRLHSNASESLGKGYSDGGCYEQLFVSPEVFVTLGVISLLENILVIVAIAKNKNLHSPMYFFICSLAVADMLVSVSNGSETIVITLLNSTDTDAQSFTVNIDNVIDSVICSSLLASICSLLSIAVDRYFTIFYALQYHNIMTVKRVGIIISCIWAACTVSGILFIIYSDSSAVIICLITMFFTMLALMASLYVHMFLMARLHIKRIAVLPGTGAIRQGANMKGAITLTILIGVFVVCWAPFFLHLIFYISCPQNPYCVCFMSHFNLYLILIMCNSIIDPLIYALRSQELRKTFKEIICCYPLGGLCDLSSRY
Experimental: as §1, §2

hMC3 [4] = biological target: T4, hMC3 (Homo sapiens, UniProt P41968); test: as above
T4 construct: expressed in transfected cells; host or cells: CHO-K1
T4 sequence (P41968 whole entry): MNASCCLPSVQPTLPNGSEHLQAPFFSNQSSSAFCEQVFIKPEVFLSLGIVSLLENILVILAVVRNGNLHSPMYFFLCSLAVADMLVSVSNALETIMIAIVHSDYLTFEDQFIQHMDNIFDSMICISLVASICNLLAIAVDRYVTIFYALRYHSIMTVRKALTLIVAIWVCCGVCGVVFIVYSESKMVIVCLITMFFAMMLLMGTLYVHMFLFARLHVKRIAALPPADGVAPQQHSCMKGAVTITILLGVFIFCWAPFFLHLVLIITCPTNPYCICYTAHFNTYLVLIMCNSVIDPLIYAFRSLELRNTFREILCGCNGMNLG
Experimental: as §1, §2

hMC5 [5] = biological target: T2, hMC5; test: Cyclic AMP bioassay (ECL), CHO-K1 cells expressing hMC5; format: cell-based; settings: intracellular cAMP
Experimental: (§3) Intracellular cyclic AMP (cAMP) levels were determined by an electrochemiluminescence (ECL) assay (Meso Scale Discovery®, Gaithersburg, Md.; referred to hereinafter as “MSD”). […] Transgenic CHO-K1 cells stably expressing hMC receptor subtypes 1, 3, 4 or 5 were dispensed at a density of approximately 7,000 cells/well in 384-well Multi-Array® plates (MSD) containing integrated carbon electrodes and coated with anti-cAMP antibody. Increasing concentrations of the test compounds were added and the cells were incubated for approximately 40 minutes at approximately 37° C. […] At the end of the second incubation period read buffer (Tris-buffered solution containing an ECL co-reactant and Triton X-100 at ph 7.8) was added and the cAMP levels in the cell lysates were immediately determined by ECL detection with a Sector Imager 6000 Reader® (MSD). Data was analyzed using a computer-assisted non-linear regression analysis (XL fit; IDBS) and reported as either an EC50 value or a Kb value.

hMC3 [6] = biological target: T4, hMC3; test: Cyclic AMP bioassay (ECL), CHO-K1 cells expressing hMC3; format: cell-based; settings: intracellular cAMP
Experimental: as §3

hMC1 [7] = biological target: T1, hMC1; test: Cyclic AMP bioassay (ECL), CHO-K1 cells expressing hMC1; format: cell-based; settings: intracellular cAMP
Experimental: as §3

hMC4 [8] = biological target: T3, hMC4; test: Cyclic AMP bioassay (ECL), CHO-K1 cells expressing hMC4; format: cell-based; settings: intracellular cAMP
Experimental: as §3

T1 sequence (Q01726 whole entry): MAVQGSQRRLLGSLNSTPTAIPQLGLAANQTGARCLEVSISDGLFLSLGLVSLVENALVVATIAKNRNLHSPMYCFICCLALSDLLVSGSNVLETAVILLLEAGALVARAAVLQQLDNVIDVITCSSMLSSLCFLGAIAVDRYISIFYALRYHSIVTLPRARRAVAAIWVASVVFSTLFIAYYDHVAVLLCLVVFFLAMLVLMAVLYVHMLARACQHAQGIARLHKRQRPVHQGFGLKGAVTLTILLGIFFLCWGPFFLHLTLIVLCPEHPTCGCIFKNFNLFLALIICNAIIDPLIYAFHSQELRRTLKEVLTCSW

| SMILES | Ki (hMC1 [1]) [nM] | Ki (hMC5 [2]) [nM] | Ki (hMC4 [3]) [nM] | Ki (hMC3 [4]) [nM] | EC50 (hMC5 [5]) [nM] | EC50 (hMC3 [6]) [nM] | EC50 (hMC1 [7]) [nM] | EC50 (hMC4 [8]) [nM] |
| --- | --- | --- | --- | --- | --- | --- | --- | --- |
| N=C(N)NCCC[C@@H]1NC(=O)[C@@H](Cc2ccc3ccccc3c2)NC(=O)[C@H](Cc2cnc[nH]2)N2C(=O)N[C@@H](CC(=O)NCCCC[C@@H](C(N)=O)NC(=O)[C@H](Cc3c[nH]c4ccccc34)NC1=O)C2=O [cyclo[Hydantoin(C(O)-(Asp-His))-D-2-Nal-Arg-Trp-Lys]-NH2] | 200 |  |  |  |  |  |  |  |
| N=C(N)NCCC[C@@H]1NC(=O)[C@@H](Cc2ccc3ccccc3c2)NC(=O)C2(Cc3ccccc3C2)N2C(=O)N[C@@H](CC(=O)NCCCC[C@@H](C(N)=O)NC(=O)[C@H](Cc3c[nH]c4ccccc34)NC1=O)C2=O [cyclo[Hydantoin(C(O)-(Asp-Aic))-D-2-Nal-Arg-Trp-Lys]-NH2] | 9030 | 1160 | 35.8 | 2630 |  |  |  |  |
| N=C(N)NCCC[C@@H]1NC(=O)[C@@H](Cc2ccc3ccccc3c2)NC(=O)C2(CCCC2)N2C(=O)N[C@@H](CC(=O)NCCCC[C@@H](C(N)=O)NC(=O)[C@H](Cc3c[nH]c4ccccc34)NC1=O)C2=O [cyclo[Hydantoin(C(O)-(Asp-A5c))-D-2-Nal-Arg-Trp-Lys]-NH2] | 9940 |  |  | 2390 |  |  |  |  |
| C[C@H]1NC(=O)[C@@H](NC(=O)CN2C(=O)N[C@H](C)C2=O)CSSC[C@@H](C(N)=O)NC(=O)[C@H](Cc2c[nH]c3ccccc23)NC(=O)[C@H](CCCNC(=N)N)NC(=O)[C@@H](Cc2ccccc2)NC(=O)[C@H](Cc2cnc[nH]2)NC1=O [Hydantoin(C(O)-(D-Ala-Gly))-cyclo(Cys-D-Ala-His-D-Phe-Arg-Trp-Cys)-NH2] |  |  |  |  | 355 | 2.22 | 4.7 | 0.309 |
| N=C(N)NCCC[C@@H]1NC(=O)[C@@H](Cc2ccc3ccccc3c2)NC(=O)C2(CCNCC2)N2C(=O)N[C@@H](CC(=O)NCCCC[C@@H](C(N)=O)NC(=O)[C@H](Cc3c[nH]c4ccccc34)NC1=O)C2=O [cyclo[Hydantoin(C(O)-(Asp-Apc))-D-2-Nal-Arg-Trp-Lys]-NH2] | 1280 |  | 266 | 2760 |  |  |  |  |
| C[C@H]1NC(=O)[C@@H](NC(=O)[C@@H](CCCNC(=N)N)N2C(=O)CNC2=O)CSSC[C@@H](C(N)=O)NC(=O)[C@H](Cc2c[nH]c3ccccc23)NC(=O)[C@H](CCCNC(=N)N)NC(=O)[C@@H](Cc2ccccc2)NC(=O)[C@H](Cc2cnc[nH]2)NC1=O [Hydantoin(C(O)-(Gly-D-Arg))-cyclo(Cys-D-Ala-His-D-Phe-Arg-Trp-Cys)-NH2] |  |  |  |  | 9840 | 11.6 | 7.53 | 0.435 |
| N=C(N)NCCC[C@@H]1NC(=O)[C@@H](Cc2ccccc2)NC(=O)[C@H](Cc2cnc[nH]2)NC(=O)[C@H](CCC(=O)O)NC(=O)[C@@H](NC(=O)CN2C(=O)CNC2=O)CSSC[C@@H](C(N)=O)NC(=O)[C@H](Cc2c[nH]c3ccccc23)NC1=O [Hydantoin(C(O)-(Gly-Gly))-cyclo(Cys-Glu-His-D-Phe-Arg-Trp-Cys)-NH2] |  |  |  |  | > 10000 |  |  |  |
| C[C@H]1NC(=O)[C@@H](NC(=O)CN2C(=O)N[C@H](CCCNC(=N)N)C2=O)CSSC[C@@H](C(N)=O)NC(=O)[C@H](Cc2c[nH]c3ccccc23)NC(=O)[C@H](CCCNC(=N)N)NC(=O)[C@@H](Cc2ccccc2)NC(=O)[C@H](Cc2cnc[nH]2)NC1=O [Hydantoin(C(O)-(D-Arg-Gly))-cyclo(Cys-D-Ala-His-D-Phe-Arg-Trp-Cys)-NH2] |  |  |  |  | 3950 | 23.2 | 11.5 | 0.513 |
| N=C(N)NCCC[C@@H]1NC(=O)[C@@H](Cc2ccccc2)NC(=O)[C@H](Cc2cnc[nH]2)NC(=O)[C@H](CCC(=O)O)NC(=O)[C@@H](N2C(=O)CNC2=O)CSSC[C@@H](C(N)=O)NC(=O)[C@H](Cc2c[nH]c3ccccc23)NC1=O [cyclo[Hydantoin(C(O)-(Gly-Cys))-Glu-His-D-Phe-Arg-Trp-Cys]-NH2] |  |  |  |  | 1780 | 21.8 | 14.5 | 0.576 |
| N=C(N)NCCC[C@@H]1NC(=O)[C@@H](Cc2ccc3ccccc3c2)NC(=O)C2(CC2)N2C(=O)N[C@@H](CC(=O)NCCCC[C@@H](C(N)=O)NC(=O)[C@H](Cc3c[nH]c4ccccc34)NC1=O)C2=O [cyclo[Hydantoin(C(O)-(Asp-A3c))-D-2-Nal-Arg-Trp-Lys]-NH2] | 7570 | 2880 | 420 | 1920 |  |  |  |  |
| N=C(N)NCCC[C@@H]1NC(=O)[C@@H](Cc2ccccc2)NC(=O)[C@H](Cc2cnc[nH]2)NC(=O)[C@H](CCC(=O)O)NC(=O)[C@@H](NC(=O)CN2C(=O)N[C@H](CCCNC(=N)N)C2=O)CSSC[C@@H](C(N)=O)NC(=O)[C@H](Cc2c[nH]c3ccccc23)NC1=O [Hydantoin(C(O)-(D-Arg-Gly))-cyclo(Cys-Glu-His-D-Phe-Arg-Trp-Cys)-NH2] | 9.49 | 2260 | 2.95 | 124 | 2710 | 17.1 | 18 | 0.16 |
| C[C@@H]1C(=O)N[C@@H](Cc2cnc[nH]2)C(=O)N[C@H](Cc2ccccc2)C(=O)N[C@@H](CCCNC(=N)N)C(=O)N[C@@H](Cc2c[nH]c3ccccc23)C(=O)N[C@H](C(N)=O)CNC(=O)C[C@@H]2NC(=O)N1C2=O [cyclo[Hydantoin(C(O)-(Asp-D-Ala))-His-D-Phe-Arg-Trp-Dap]-NH2] |  | > 10000 |  |  |  |  |  |  |
| CC[C@H](C)[C@@H]1NC(=O)N([C@H]2CSSC[C@@H](C(N)=O)NC(=O)[C@H](Cc3c[nH]c4ccccc34)NC(=O)[C@H](CCCNC(=N)N)NC(=O)[C@@H](Cc3ccccc3)NC(=O)[C@H](Cc3cnc[nH]3)NC(=O)[C@@H](C)NC2=O)C1=O [cyclo[Hydantoin(C(O)-(Ile-Cys))-D-Ala-His-D-Phe-Arg-Trp-Cys]-NH2] |  | > 10000 |  |  |  |  |  |  |
| C[C@@H]1C(=O)N[C@@H](Cc2cnc[nH]2)C(=O)N[C@H](Cc2ccccc2)C(=O)N[C@@H](CCCNC(=N)N)C(=O)N[C@@H](Cc2c[nH]c3ccccc23)C(=O)N[C@H](C(N)=O)CCCNC(=O)C[C@@H]2NC(=O)N1C2=O [cyclo[Hydantoin(C(O)-(Asp-D-Ala))-His-D-Phe-Arg-Trp-Orn]-NH2] | 37.7 | 6400 | 7.81 | 576 | 9300 | 88.6 | 56.6 | 4.5 |
| C[C@@H]1C(=O)N[C@@H](Cc2cnc[nH]2)C(=O)N[C@H](Cc2ccccc2)C(=O)N[C@@H](CCCNC(=N)N)C(=O)N[C@@H](Cc2c[nH]c3ccccc23)C(=O)N[C@H](C(N)=O)CNC(=O)CC[C@@H]2NC(=O)N1C2=O [cyclo[Hydantoin(C(O)-(Glu-D-Ala))-His-D-Phe-Arg-Trp-Dap]-NH2] | 16.4 |  | 4.97 | 863 |  | 18.2 | 56.7 | 0.182 |
| C[C@@H]1C(=O)N[C@@H](Cc2cnc[nH]2)C(=O)N[C@H](Cc2ccccc2)C(=O)N[C@@H](CCCNC(=N)N)C(=O)N[C@@H](Cc2c[nH]c3ccccc23)C(=O)N[C@H](C(N)=O)CCCNC(=O)CC[C@@H]2NC(=O)N1C2=O [cyclo[Hydantoin(C(O)-(Glu-D-Ala))-His-D-Phe-Arg-Trp-Orn]-NH2] | 60.4 |  | 52.4 | 2840 |  | 39.2 |  | 4.94 |
| CCCC[C@@H]1NC(=O)N(CC(=O)N[C@H]2CSSC[C@@H](C(N)=O)NC(=O)[C@H](Cc3c[nH]c4ccccc34)NC(=O)[C@H](CCCNC(=N)N)NC(=O)[C@@H](Cc3ccccc3)NC(=O)[C@H](Cc3cnc[nH]3)NC(=O)[C@H](CCC(=O)O)NC2=O)C1=O [Hydantoin(C(O)-(Nle-Gly))-cyclo(Cys-Glu-His-D-Phe-Arg-Trp-Cys)-NH2] |  |  |  |  | > 10000 |  |  |  |
| C[C@@H]1C(=O)N[C@@H](Cc2cnc[nH]2)C(=O)N[C@H](Cc2ccccc2)C(=O)N[C@@H](CCCNC(=N)N)C(=O)N[C@@H](Cc2c[nH]c3ccccc23)C(=O)N[C@H](C(N)=O)CCCCNC(=O)CC[C@@H]2NC(=O)N1C2=O [cyclo[Hydantoin(C(O)-(Glu-D-Ala))-His-D-Phe-Arg-Trp-Lys]-NH2] | 72.6 |  | 45.2 | 1920 |  | 22.3 |  | 3.62 |
| N=C(N)NCCC[C@@H]1NC(=O)[C@@H](Cc2ccc3ccccc3c2)NC(=O)C2(CCCCC2)N2C(=O)N[C@@H](CC(=O)NCCCC[C@@H](C(N)=O)NC(=O)[C@H](Cc3c[nH]c4ccccc34)NC1=O)C2=O [cyclo[Hydantoin(C(O)-(Asp-A6c))-D-2-Nal-Arg-Trp-Lys]-NH2] | 2170 | 451 | 16.5 | 1480 |  |  |  |  |
| N=C(N)NCCC[C@@H]1NC(=O)[C@@H](Cc2ccccc2)NC(=O)[C@H](Cc2cnc[nH]2)NC(=O)[C@H](CCC(=O)O)NC(=O)[C@@H](NC(=O)[C@@H](CCCNC(=N)N)N2C(=O)CNC2=O)CSSC[C@@H](C(N)=O)NC(=O)[C@H](Cc2c[nH]c3ccccc23)NC1=O [Hydantoin(C(O)-(Gly-D-Arg))-cyclo(Cys-Glu-His-D-Phe-Arg-Trp-Cys)-NH2] | 4.3 | 4540 | 1.77 | 78 | 7440 | 10.3 | 12.9 | 0.125 |
| CCCC[C@@H](C(=O)N[C@H]1CSSC[C@@H](C(N)=O)NC(=O)[C@H](Cc2c[nH]c3ccccc23)NC(=O)[C@H](CCCNC(=N)N)NC(=O)[C@@H](Cc2ccccc2)NC(=O)[C@H](Cc2cnc[nH]2)NC(=O)[C@@H](C)NC1=O)N1C(=O)N[C@H](C)C1=O [Hydantoin(C(O)-(D-Ala-Nle))-cyclo(Cys-D-Ala-His-D-Phe-Arg-Trp-Cys)-NH2] |  |  |  |  |  | 2.56 |  | 1.47 |
